Experimental data: patent US20070049564A1 (Wyeth, priority 2005, published 2007)
Read-outs that look alike come from different tables or passages of the source.

Key:
E. coli GC 1073 = assay: MIC, broth microdilution; settings: Escherichia coli
E. coli GC 6465 = assay: MIC, broth microdilution; settings: Escherichia coli
E. coli GC 2233 = assay: MIC, broth microdilution; settings: Escherichia coli
E. faecalis GC 4555 = assay: MIC, broth microdilution; settings: Enterococcus faecalis
E. coli = assay: Range of MIC for E. coli strains; settings: Escherichia coli
E. faecalis GC 2265 = assay: MIC, broth microdilution; settings: Enterococcus faecalis
P. aeruginosa GC 2214 = assay: MIC, broth microdilution; settings: Pseudomonas aeruginosa
E. coli GC 2203 = assay: MIC, broth microdilution; settings: Escherichia coli
S. aureus GC 4536 = assay: MIC, broth microdilution; settings: Staphylococcus aureus
S. aureus GC 6469 = assay: MIC, broth microdilution; settings: Staphylococcus aureus
E. faecalis GC 2242 = assay: MIC, broth microdilution; settings: Enterococcus faecalis
E. coli GC 2270 = assay: MIC, broth microdilution; settings: Escherichia coli
E. coli GC 4560 = assay: MIC, broth microdilution; settings: Escherichia coli
Procedure: (§1) Antimicrobial susceptibility testing. The in vitro activities of the antibiotics are determined by the broth microdilution method as recommended by the National Committee for Clinical Laboratory Standards (NCCLS) (1). Mueller-Hinton II broth (MHBII)(BBL Cockeysville, Md.) is the medium employed in the testing procedures. Microtiter plates containing serial dilutions of each antimicrobial agent are inoculated with each organism to yield the appropriate density (10^5 CFU/ml) in a 100 μl final volume. The plates are incubated for 18-22 hours at 35° C. in ambient air.
(§2) Representative compounds were first incubated in mouse serum for an hour prior to the in vitro testing against a panel of selected gram-positive and gram-negative bacteria strains. All compounds were also pre-incubated in water for an hour prior to testing as control. Representative compounds of Formula I were incubated in human serum prior to MIC determination.

E. coli GC 2236 = assay: MIC, broth microdilution; settings: Escherichia coli
S. agalactiae GC 4564 = assay: MIC, broth microdilution; settings: Streptococcus agalactiae
S. aureus GC 6467 = assay: MIC, broth microdilution; settings: Staphylococcus aureus
Staph. = assay: Range of MIC for Staph. strains, including MRSA; settings: Staphylococcus aureus, MRSA
E. coli GC 2271 = assay: MIC, broth microdilution; settings: Escherichia coli
E. coli GC 4559 = assay: MIC, broth microdilution; settings: Escherichia coli
E. coli GC 2235 = assay: MIC, broth microdilution; settings: Escherichia coli
Procedure: as §1, §2

[1] = GC1073, read-out: MINIMAL INHIBITORY CONCENTRATION MIC, pre-incubated in Mouse Serum
[2] = GC1073, read-out: MINIMAL INHIBITORY CONCENTRATION MIC, pre-incubated in Water
[3] = GC6465, read-out: MINIMAL INHIBITORY CONCENTRATION MIC, pre-incubated in Mouse Serum
[4] = GC6465, read-out: MINIMAL INHIBITORY CONCENTRATION MIC, pre-incubated in Water
[5] = GC2233, read-out: MINIMAL INHIBITORY CONCENTRATION MIC, pre-incubated in Mouse Serum
[6] = GC2233, read-out: MINIMAL INHIBITORY CONCENTRATION MIC, pre-incubated in Water
[7] = GC4555, read-out: MINIMAL INHIBITORY CONCENTRATION MIC, pre-incubated in Mouse Serum
[8] = GC4555, read-out: MINIMAL INHIBITORY CONCENTRATION MIC, pre-incubated in Water
[9] = 20 h, read-out: Range of MIC, E. coli (Mouse Serum)
[10] = read-out: Range of MIC, E. coli (Water)
[11] = GC2265, read-out: MINIMAL INHIBITORY CONCENTRATION MIC, pre-incubated in Mouse Serum
[12] = GC2265, read-out: MINIMAL INHIBITORY CONCENTRATION MIC, pre-incubated in Water
[13] = GC2214, read-out: MINIMAL INHIBITORY CONCENTRATION MIC, pre-incubated in Mouse Serum
[14] = GC2214, read-out: MINIMAL INHIBITORY CONCENTRATION MIC, pre-incubated in Water
[15] = GC2203, read-out: MINIMAL INHIBITORY CONCENTRATION MIC, pre-incubated in Mouse Serum
[16] = GC2203, read-out: MINIMAL INHIBITORY CONCENTRATION MIC, pre-incubated in Water
[17] = GC4536, read-out: MINIMAL INHIBITORY CONCENTRATION MIC, pre-incubated in Mouse Serum
[18] = GC4536, read-out: MINIMAL INHIBITORY CONCENTRATION MIC, pre-incubated in Water
[19] = GC6469, read-out: MINIMAL INHIBITORY CONCENTRATION MIC, pre-incubated in Mouse Serum
[20] = GC6469, read-out: MINIMAL INHIBITORY CONCENTRATION MIC, pre-incubated in Water
[21] = GC2242, read-out: MINIMAL INHIBITORY CONCENTRATION MIC, pre-incubated in Mouse Serum
[22] = GC2242, read-out: MINIMAL INHIBITORY CONCENTRATION MIC, pre-incubated in Water
[23] = GC2270, read-out: MINIMAL INHIBITORY CONCENTRATION MIC, pre-incubated in Mouse Serum
[24] = GC2270, read-out: MINIMAL INHIBITORY CONCENTRATION MIC, pre-incubated in Water
[25] = GC4560, read-out: MINIMAL INHIBITORY CONCENTRATION MIC, pre-incubated in Mouse Serum
[26] = GC4560, read-out: MINIMAL INHIBITORY CONCENTRATION MIC, pre-incubated in Water
[27] = GC2236, read-out: MINIMAL INHIBITORY CONCENTRATION MIC, pre-incubated in Mouse Serum
[28] = GC2236, read-out: MINIMAL INHIBITORY CONCENTRATION MIC, pre-incubated in Water
[29] = GC4564, read-out: MINIMAL INHIBITORY CONCENTRATION MIC, pre-incubated in Mouse Serum
[30] = GC4564, read-out: MINIMAL INHIBITORY CONCENTRATION MIC, pre-incubated in Water
[31] = GC6467, read-out: MINIMAL INHIBITORY CONCENTRATION MIC, pre-incubated in Mouse Serum
[32] = GC6467, read-out: MINIMAL INHIBITORY CONCENTRATION MIC, pre-incubated in Water
[33] = read-out: Range of MIC, Staph (Mouse Serum)
[34] = GC2271, read-out: MINIMAL INHIBITORY CONCENTRATION MIC, pre-incubated in Mouse Serum
[35] = GC2271, read-out: MINIMAL INHIBITORY CONCENTRATION MIC, pre-incubated in Water
[36] = GC4559, read-out: MINIMAL INHIBITORY CONCENTRATION MIC, pre-incubated in Mouse Serum
[37] = GC4559, read-out: MINIMAL INHIBITORY CONCENTRATION MIC, pre-incubated in Water
[38] = GC2235, read-out: MINIMAL INHIBITORY CONCENTRATION MIC, pre-incubated in Mouse Serum
[39] = GC2235, read-out: MINIMAL INHIBITORY CONCENTRATION MIC, pre-incubated in Water

Measured: MIC

CCCCN(CC(=O)Nc1cc(N(C)C)c2c(c1O)C(=O)C1=C(O)[C@]3(O)C(=O)C(C(N)=O)=C(O)[C@@H](N(C)C)[C@@H]3C[C@@H]1C2)C(=O)OCOC(=O)c1cccs1 [Example 23, ({[(2-{[(5aR,6aS,7S,10aS)-9-(aminocarbonyl)-4,7-bis(dimethylamino)-1,8,10a,11-tetrahydroxy-10,12-dioxo-5,5a,6,6a,7,10,10a,12-octahydrotetracen-2-yl]amino}-2-oxoethyl)(butyl)amino]carbonyl}oxy)methyl thiophene-2-carboxylate]
4 µg/mL: E. coli GC 6465; [3] | E. faecalis GC 4555; [8] | E. faecalis GC 2265; [12] | S. aureus GC 6469; [19] | S. aureus GC 6469; [20] | E. faecalis GC 2242; [22] | S. aureus GC 6467; [31]
0.5 µg/mL: E. coli GC 4560; [25]
1 µg/mL: E. coli GC 1073; [1] | E. faecalis GC 4555; [7] | E. faecalis GC 2265; [11] | E. coli GC 2203; [15] | S. aureus GC 4536; [17] | E. coli GC 2270; [23] | E. coli GC 2271; [34] | E. coli GC 2235; [38]
> 64 µg/mL: E. coli GC 1073; [2] | E. coli GC 6465; [4] | E. coli GC 2233; [6] | E. coli; read-out: Minimum inhibitory concentration (MIC), E. coli (water) | E. coli; [10] | P. aeruginosa GC 2214; [13] | P. aeruginosa GC 2214; [14] | E. coli GC 2203; [16] | E. coli GC 2270; [24] | E. coli GC 2236; [28] | E. coli GC 2271; [35] | E. coli GC 4559; [37] | E. coli GC 2235; [39]
0.25 µg/mL: S. agalactiae GC 4564; [29] | S. agalactiae GC 4564; [30]
0.5 to 8 µg/mL: Staph.; read-out: Minimum inhibitory concentration (MIC), Staph. (water) | Staph.; read-out: Range of MIC, Staph (Water)
0.25 to 4 µg/mL: Staph.; read-out: Minimum inhibitory concentration (MIC), Staph. (mouse serum) | Staph.; [33]
2 µg/mL: E. coli GC 2233; [5] | S. aureus GC 4536; [18] | E. faecalis GC 2242; [21] | E. coli GC 2236; [27] | E. coli GC 4559; [36]
1 to 8 µg/mL: E. coli; [9] | E. coli; read-out: Minimum inhibitory concentration (MIC), E. coli (mouse serum)
8 µg/mL: E. coli GC 4560; [26] | S. aureus GC 6467; [32]

CCCN(CC(=O)Nc1cc(N(C)C)c2c(c1O)C(=O)C1=C(O)[C@]3(O)C(=O)C(C(N)=O)=C(O)[C@@H](N(C)C)[C@@H]3C[C@@H]1C2)C(=O)OCOC(=O)c1ccc(-c2ccccc2)cc1 [Example 24, ({[(2-{[(5aR,6aS,7S,10aS)-9-(aminocarbonyl)-4,7-bis(dimethylamino)-1,8,10a,11-tetrahydroxy-10,12-dioxo-5,5a,6,6a,7,10,10a,12-octahydrotetracen-2-yl]amino}-2-oxoethyl)(propyl)amino]carbonyl}oxy)methyl 1,1′-biphenyl-4-carboxylate]
0.5 µg/mL: E. coli GC 2203; [15] | E. coli GC 2270; [23] | S. agalactiae GC 4564; [29] | E. coli GC 2271; [34] | E. coli GC 2235; [38]
16 µg/mL: P. aeruginosa GC 2214; [13]
2 µg/mL: E. faecalis GC 2265; [11] | E. faecalis GC 2242; [21]
0.25 µg/mL: E. coli GC 4560; [25]
64 µg/mL: E. faecalis GC 4555; [8] | E. coli GC 4560; [26]
32 µg/mL: E. faecalis GC 2265; [12]
4 µg/mL: S. aureus GC 4536; [18] | S. aureus GC 6469; [19] | E. faecalis GC 2242; [22] | S. aureus GC 6467; [31]
0.5 to 2 µg/mL: E. coli; [9] | E. coli; read-out: Range of MIC, E. coli (mouse serum)
> 64 µg/mL: E. coli GC 1073; [2] | E. coli GC 6465; [4] | E. coli GC 2233; [6] | E. coli; [10] | E. coli; read-out: Range of MIC, E. coli (water) | P. aeruginosa GC 2214; [14] | E. coli GC 2203; [16] | S. aureus GC 6469; [20] | E. coli GC 2270; [24] | E. coli GC 2236; [28] | S. aureus GC 6467; [32] | E. coli GC 2271; [35] | E. coli GC 4559; [37] | E. coli GC 2235; [39]
8 µg/mL: E. coli GC 6465; [3] | S. agalactiae GC 4564; [30]
1 µg/mL: E. coli GC 1073; [1] | E. coli GC 2233; [5] | E. faecalis GC 4555; [7] | S. aureus GC 4536; [17] | E. coli GC 2236; [27] | E. coli GC 4559; [36]
0.25 to 4 µg/mL: Staph.; [33] | Staph.; read-out: Range of MIC, Staph. (mouse serum)
